This is an account of results in PubChem BioAssay AID489024 (Sanford-Burnham Center for Chemical Genomics, 2010).

Each structure is given as a SMILES string. Calls of active or inactive are those of the source.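 Rule for the calls: active = compounds whose mean EC50, the dose giving half the maximal reporter activation, is at or below a set limit; inactive = the rest.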

For the assay, the target named is CHO-CHOP luciferase reporter, UPR activation, luminescence. Put plainly: activators of PERK-eIF2a-CHOP UPR arm, confirmation, CHO-CHOP cells, luciferase luminescence (AID 489024).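 Note: compounds added alone to reporter cells with no tunicamycin stress co-treatment.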
What is called EC50 is the midpoint of the concentration-response curve. As to `O=C(/C=C/Sc1ccccc1)c1ccccc1`, the half-maximal effective concentration (EC50) is 6.98 µM.
For `CCOC(=O)C1CCN(Cc2ccc(O)c3ncccc23)CC1` the value was 2.74 µM; for `O=C(NCc1cccnc1)/C(=C/c1ccc(-c2cccc(Cl)c2)o1)S(=O)(=O)c1ccccc1`, 10.4 µM.
For `OCCNc1nc(Nc2ccc(Br)cc2)nc2ccccc12` the value was 8.18 µM.
For `CC1=NOC(=O)/C1=C\c1ccc(-c2ccc(Cl)cc2Cl)o1` the value was 13.5 µM; for `CCOC(=O)C(=Cc1ccc(-n2ccnc2)cc1)C(=O)OCC`, 9.57 µM; for `CCOc1cc(/C=N/Nc2cc(C)nc(-n3nc(C)cc3C)n2)ccc1O`, 13.6 µM.
In the case of `Cc1cccc(Cn2cc(/C=C/[N+](=O)[O-])c3ccccc32)c1`, the EC50 was 7.81 µM.
As for `O=C(CSc1ccccn1)Nc1nonc1[N+](=O)[O-]`, the EC50 was 19.1 µM.
Turning to `N#CC(C#N)=C1C=CC=CN1/C(=C\c1ccccc1)C(=O)c1cccs1`, the EC50 was > 80 µM (inactive).
For `CCn1c(O)c(C2=c3ccccc3=NC2=O)c2cc(Br)ccc21` the value was 15.4 µM.
The same measure for `C/C(=N\NC(=O)c1cc(Br)ccc1O)c1ccccn1`: 6.67 µM.
The same measure for `O=C(Nc1ccc(-c2nc3cc(NC(=O)c4cccs4)ccc3o2)cc1)c1cccs1`: 6 µM.
As for `COc1ccc(C2c3ccc4ccccc4c3Oc3ncn(CCCN(C)C)c(=N)c32)cc1` (stereo unspecified), the EC50 was 6.82 µM.
On to `COC(=O)c1ccc(C(=O)OC)c(NC(=O)CSc2cccc[n+]2[O-])c1`, for which the EC50 entry is “inactive”.
The same measure for `C/C(=N\NC(=O)c1cc2ccccc2cc1O)c1ccccn1`: 3.71 µM; for `Cc1ccc(NC(=O)COc2ccc(/C=C3/SC(=Nc4ccccc4)N(Cc4cccnc4)C3=O)cc2)cc1`: “inactive”.
For `CCCCCCCCCn1c2c(c(=N)c3c1CCC3)CCCC2` the value was 11.3 µM; for `COc1ccccc1-c1nnc(Nc2nc3c(OC)cccc3s2)o1`, 2.48 µM; for `Brc1ccc(-c2ccc(/C=N/Nc3nncc(-c4ccccc4)n3)o2)cc1`, 19 µM.
Take `COC(=O)c1c(NC(=O)c2ccc([N+](=O)[O-])o2)sc2c1CCN(C(C)C)C2`: the EC50 was 1.76 µM.
For `CN(/N=C\c1ccc(O)c(O)c1)c1nc(-c2ccccc2)cc(-c2ccccc2)n1`, the EC50 is 1.32 µM.
The same measure for `COc1ccc(C(=O)/C=C2/C(=O)Nc3ccccc32)c(OC)c1`: 8.48 µM; for `CCOc1ccccc1-n1c(SCC(=O)Nc2ccc(CC)cc2)nc2n[nH]c(C)c2c1=N`: 7.22 µM; for `COc1ccc(C(=O)C(CN2CCOCC2)c2ccccc2)cc1` (stereo unspecified): “inactive”.
For `C/C(CCC12CC3CC(CC(C3)C1)C2)=N\NC(N)=S` the value was 16.5 µM; for `O=C(NCc1ccccc1Cl)c1cccc2c1C(=O)c1ccc(-c3ccc(OC(F)(F)F)cc3)cc1S2(=O)=O`, > 80 µM (inactive).
For `CCOC(=O)C1=C(Cc2ccc(Cl)cc2)C(=O)c2ccccc2C1=O` the value was > 80 µM (inactive); for `CCOC(=O)c1cnc(Nc2nc3ccccc3o2)nc1CSC(=S)N1CCCCC1`, 1.3 µM.
As for `Cc1ccc(NN2C(=O)C=C(c3ccccc3)C2=O)cc1`, the 50% effective concentration (EC50) was 14.5 µM.
`O=C(Nc1ccc(Cc2ccncc2)cc1)c1ccc([N+](=O)[O-])o1`: the 50% effective concentration (EC50) was 1.54 µM.
With `CC(C)c1ccc(NC(=O)/C(C#N)=C/c2ccncc2)cc1`, the EC50 is 13.6 µM.
In the case of `Cc1ccn2cc(-c3ccc(O)c(O)c3)nc2c1`, the EC50 is 5.31 µM.
For `COc1ccccc1N1C(=O)C=C(Sc2nc(C)cc(C)n2)C1=O` the value was > 80 µM (inactive).
Take `O=C(CCC(=O)Nc1ccc(Cl)cc1Cl)N/N=C/c1ccc([N+](=O)[O-])o1`: the EC50 was 12.9 µM.
In the case of `O=C(NC(=S)Nc1ccc(NC(=O)c2cccs2)cc1)c1cc2ccccc2o1`, the EC50 result is “inactive”.
The same measure for `CCOc1ccccc1N=Cc1c(O)c2ccccc2oc1=O`: 7.86 µM; for `O=C(/C=C/c1ccc([N+](=O)[O-])cc1)/C=C/c1ccco1`: 6.61 µM; for `Cc1cc(C(=O)Cn2ncc(Cl)c(Cl)c2=O)c(C)n1CC(F)(F)F`: 4.15 µM.
Consider `CC[C@@H](C)[C@H](NC(=O)OC(C)(C)C)c1nnc(S(=O)(=O)Cc2cc(C)ccc2C)o1`, for which the EC50 is 15.5 µM.
For `Cc1cc(C(=O)CCl)c(C)n1CCc1ccc(F)cc1` the value was 7.77 µM; for `Cc1ccccc1S(=O)(=O)NC1OC(=O)C(Cl)=C1Cl` (stereo unspecified), > 80 µM (inactive).
The same measure for `COc1ccc(C2=CC(=O)N(Nc3ccccc3)C2=O)cc1`: 13.5 µM; for `COc1ccc2c(C(=O)CCl)c[nH]c2c1`: 6.36 µM.
Turning to `CCc1cccc(CC)c1NC(=O)/C(C#N)=C/c1ccccc1C(F)(F)F`, the EC50 was > 80 µM (inactive).
In the case of `O=C(c1cccs1)N(C(=O)c1cccs1)c1ccc(Br)cn1`, the EC50 is 13.9 µM.
For `CC(C)(C)C(=O)N1CCN(c2ccc(NC(=O)c3ccc([N+](=O)[O-])o3)cc2)CC1` the value was 0.75 µM.
For the compound `COc1ccc(C(=O)Cn2c(C(=O)/C=C/c3ccccc3)nc3ccccc32)cc1`, the EC50 was 10.1 µM.
The same measure for `Cc1cc(C(=O)CCl)c(C)n1-c1cccc([N+](=O)[O-])c1`: 8.64 µM; for `Cc1cccc(Nc2nc(-c3ccccn3)cs2)n1`: 10.8 µM.
For `COc1ccc(NC(=O)C(=O)N/N=C\c2ccc(CNC(=O)C(=O)Nc3ccc(C)c(C)c3)o2)c(OC)c1` the value was 8.25 µM; for `O=C(N/N=C/c1ccccn1)c1ccc(Cl)c(Cl)c1`, 2.93 µM; for `Cn1nnnc1Sc1ncnc2scc(-c3cc4ccccc4o3)c12`, 9.26 µM.
For `O=C(Nc1nc(-c2ccccn2)cs1)c1ccc(Br)s1` the value was 8.23 µM.
Regarding `COc1ccc(N2CCN(Cc3cc(=O)oc4cc(-c5ccccc5)c(O)cc34)CC2)cc1`, the EC50 is > 80 µM (inactive).
For `O=C(c1ccc(Br)cc1)C(CN1CCOCC1)c1ccccc1` (stereo unspecified) the value was 8.78 µM; for `C=CCSC(=C(C#N)C#N)c1cc2c([nH]1)CCCC2`, > 80 µM (inactive); for `O=C1NC(=S)NC(=O)C1=Cc1ccc(Br)s1`, > 80 µM (inactive).
The same measure for `Cc1ccc(-c2cc(NC(=O)CCl)n(-c3ccccc3)n2)cc1`: 6.42 µM.
For `CCc1cccc2sc(N3CCN(C(=O)c4ccc([N+](=O)[O-])o4)CC3)nc12` the value was 10.5 µM; for `COc1cc(/C=C/C(=O)N2C(=O)c3cccc(N)c3C2=O)cc(OC)c1OC`, > 80 µM (inactive); for `CCCCn1c(/C=N/Nc2nc3ccccc3[nH]2)nc2ccccc21`, 12.3 µM.
As for `Cc1ccc(C(=O)NC(C#N)=C(Cl)Cl)cc1`, the EC50 is > 80 µM (inactive).
With `Oc1[nH]c2ccccc2c1N=NC(=S)N1CCOCC1`, the 50% effective concentration (EC50) was 7.74 µM.
The same measure for `O=[N+]([O-])c1ccc(Sc2nnnn2-c2ccccc2)nc1`: > 80 µM (inactive); for `CC(C)C(=O)N1CCN(c2ccc(NC(=O)c3ccc([N+](=O)[O-])o3)cc2)CC1`: 1.64 µM; for `O=C(/C(=C/c1cccc(Cl)c1)c1nc2ccccc2[nH]1)c1ccccc1`: 6.66 µM.
For `Cc1ccnc(Nc2nc(-c3ccc(O)c(O)c3)cs2)c1` the value was 1.34 µM.
The same measure for `Cc1ccc(C(=O)Oc2ccc(Cl)c3cccnc23)cc1[N+](=O)[O-]`: “inactive”; for `COc1ccc(C(c2c(C)[nH]n(C(N)=S)c2=O)C(C#N)C#N)cc1` (stereo unspecified): “inactive”.
As for `Cc1cc(C)c(C(CC(=O)c2cccs2)C(C#N)C#N)c(C)c1` (stereo unspecified), the half-maximal effective concentration (EC50) was 14.2 µM.
With `O=C1C=CC(=O)C(C2=C3C(=O)N(CCc4ccccc4)CC(=O)N3CCC2)=C1`, the EC50 is 9.95 µM.
The same measure for `O=C1C(Cl)=C(NC(=O)c2ccccc2)C(=O)C(Cl)=C1NC(=O)c1ccccc1`: > 80 µM (inactive); for `Oc1ccc(-c2csc(Nc3cccc4ccccc34)n2)cc1O`: 3.19 µM.
In the case of `CCOC(=O)c1cnc(-n2nc(C)cc2C)nc1NC1CCCCC1`, the EC50 is > 80 µM (inactive).
The same measure for `Cc1sc(NC(=O)c2cc(-c3ccc(Cl)cc3)nc3ccccc23)c(C(N)=O)c1C`: “inactive”.
With `COC(=O)C(=Cc1ccc(OCc2ccc([N+](=O)[O-])cc2)c(OC)c1)C(=O)OC`, the EC50 was 5.43 µM.
The same measure for `Oc1[nH]c2ccc(Br)cc2c1N=NC(=S)N1CCOCC1`: 4.28 µM.
For `CCOC(=O)c1ccc(-c2ccc(/C=N/NC(=O)CN(c3cccc(C)c3)S(C)(=O)=O)o2)cc1` the value was 20 µM.
As to `CCOC(=O)C(=Cc1ccc(-n2cncn2)cc1)C(=O)OCC`, the EC50 was 11.4 µM.
On to `O=C(N/N=C/c1ccccn1)c1sc2ccccc2c1Cl`, for which the EC50 was 7.31 µM.
For `COc1ccc(-c2oc(NC(=O)CCl)c(C#N)c2-c2ccc(OC)cc2)cc1` the value was 12.9 µM; for `Cc1ccc(S/C=C\C(=O)c2ccccc2)cc1`, > 80 µM (inactive); for `Cc1c(NC(=O)CSc2cccc3cccnc23)c(=O)n(-c2ccccc2)n1C`, 6.53 µM.
With `COc1ccc(C(=O)Sc2ccc(Cl)cc2)cc1OC`, the EC50 is 9.38 µM.
Consider `CN(C)CC(C(=O)c1ccccc1)c1ccccc1` (stereo unspecified), for which the EC50 is 6.77 µM.
For `COc1ccc(N=Nc2ccc(O)c3ncccc23)cc1` the value was 7.89 µM; for `COc1ccc(-n2nc(C#N)c(Cl)cc2=O)cc1`, 3.23 µM; for `CCc1nnc(NC(=O)c2nc(S(=O)(=O)Cc3ccc(C)cc3)ncc2Cl)s1`, > 80 µM (inactive).
Take `Cc1cccc(N=Nc2ccc(O)c3ncccc23)c1`: the EC50 is 7.28 µM.
For `O=C1NC(=O)N(Cc2ccccc2Cl)C(=O)/C1=C/c1cccs1` the value was 15.9 µM.
In the case of `O=[N+]([O-])c1ccc(C=Nc2ccc(Cl)c([N+](=O)[O-])c2)s1`, the EC50 is > 80 µM (inactive).
The same measure for `CCOC(=O)C(=Cc1ccc(OCc2ccc([N+](=O)[O-])cc2)c(OC)c1)C(=O)OCC`: 6.51 µM.
For `O=C1NN(c2cccc(Br)c2)C(=O)/C1=C/c1cccs1` the value was “inactive”; for `O=C(Nc1ccc(NC(=O)c2sc3ccccc3c2Cl)cc1Cl)c1ccco1`, “inactive”; for `Cc1ccc(-c2nc(SCC(=O)Nc3cc(C)on3)c3c(=O)n(C)c(=O)n(C)c3n2)cc1`, > 80 µM (inactive).
